Measurements reported in US20230173014A1, “WINE LEES, DERIVATIVES THEREOF AND THEIR USES” (GRANDES VINOS Y VIÑEDOS SA, priority 2021, published 2023).

Experiments:
[1] = system: spontaneously hypertensive rats (SHR); assay: Antihypertensive activity after acute intragastric administration in hypertensive rats (tail-cuff); type: in vivo, rat; conditions: for ΔSBP (mmHg) 2 h: mean ± ESM n=6; for ΔSBP (mmHg) 4 h / ΔSBP (mmHg) 6 h / ΔSBP (mmHg) 8 h / ΔSBP (mmHg) 24 h / ΔSBP (mmHg) 48 h: same doses; for maximum values of SBP reduction: printed as at 4 h post-administration
Protocol: For the study, male SHR rats 17-20 weeks old and weighing between 310 and 360 g, from Charles River Laboratories España S.A. were used. The rats remained at a stable ambient temperature of 23° C., and with light-dark cycles of 12 hours, eating food and water ad-libitum.
The BP measurement in these animals was carried out with a modification of the tail-cuff technique, following the methodology and equipment described by Mas-Capdevila et al. 2018. The measurement of the SBP was performed prior to the administration of the treatments and after their administration at 2, 4, 6, 8, 24 and 48 h. The treatments consisted of the acute administration of a dose of 5 mL/kg bw of the different wine lees (supernatant collected after centrifugation at 2,950×g, 15 min, 4° C.). The effect of water administration (1.5 mL, negative control) was also evaluated in order to know the circadian variation of SBP in rats and of captopril (50 mg/kg bw dissolved in 1.5 mL of water), antihypertensive drug used as a positive control. The administration of all the treatments was carried out by means of an intragastric tube at between 9 and 10 a.m.
The SBP and DBP results are represented as a decrease in SBP or DBP at different times with respect to the SBP or DBP observed at 0 h (without treatment) for each animal (FIG. 1). Each data represents the mean±the ESM (n=6). Furthermore, the data of the different groups were compared in a 2-way analysis of variance (ANOVA) using the Tukey test at each post-administration time with the SPSS statistical program (IBM SPSS Statistics software version 20.0) and the difference was considered significant for p values <0.05.
In the present example, the effect of dry UVC wine lees, without alcohol, on its antihypertensive activity is described by means of its acute administration to SHR rats. The study was carried out following the method and conditions described in Example 3. The treatments that were evaluated consisted of the acute administration of water (1.5 mL), captopril (50 mg/kg bw), UVC wine lees (5 mL/kg bw), or the same lyophilized lees (125 mg/kg bw). The tested dose of lyophilized lees (125 mg/kg bw) corresponded to the same amount of dry product that is in 5 mL/kg bw of the wine lees. Solid state treatments were diluted in water for administration to animals. […] In fact, it increased its effectiveness from the two hours after its administration, producing a drop in systolic blood pressure of −33 mmHg compared to −12 mmHg, a drop produced by those without drying. Furthermore, its effect was more prolonged in time. Specifically, lyophilized UVC wine lees produced a drop in SBP of −41 mmHg at 24 h post-administration.
The antihypertensive effect of the “hydrolysate 3” was studied for 72 h (0, 2, 4, 6, 8, 24, 48, and 72 h), after its administration by intragastric tube. As in Example 3, negative and positive BP controls were performed, obtained after administration of water and captopril (50 mg/kg bw) respectively, in a volume of 1.5 mL per animal. The antihypertensive activity of the wine lees used to prepare “hydrolysate 3” and “hydrolysate 3” was evaluated, both at a dose of 5 mL/kg bw. The lees used in these tests were from a different batch than the one used in Example 3.
For the evaluation of the possible acute antihypertensive effect of the peptides, a study in SHR rats was carried out, provided by Charles River Laboratories Espana S.A. The rats' age, stalling conditions and BP measurement technique were the same as those described in Example 3. The initial SBP of the animals was 204±2 mmHg. A negative control (water) and a positive control (captopril) were also included during the study. The peptides were administered intragastrically at a single dose of 10 mg/kg bw and captopril at 50 mg/kg bw, diluted in water. BP measurements were pooled and the mean±ESM was obtained (n=6 per group). The same analysis of variance was used as in Example 3.

[2] = biological target: Angiotensin Converting Enzyme (ACE) (Homo sapiens, UniProt P12821); assay: ACEI activity measurement (in vitro ACE inhibition); type: biochemical; conditions: synthetic peptides at 0.83 mg/mL
Protocol: Once the wine lees were collected, they were centrifuged at 2,950×g, 15 min, 4° C. and the supernatant was collected. The ACEI activity of the supernatants was determined as described in Example 2.
The ACEI activity measurement of the wine lees and their hydrolysates was performed according to the method described by Mas-Capdevila et al. 2018 (“Dose-related antihypertensive properties and the corresponding mechanisms of a chicken foot hydrolysate in hypertensive rats”. Nutrients. 2018, 10 (9), 1295), after centrifugation at 2,950×g, 15 min, 4° C. and a dilution of 1/256.
The percentage of inhibition (% Inhibition) was calculated applying the following formula: […]
The IC50 was calculated by determining the ACEI percentage of different concentrations of the sample. […] Subsequently, the necessary amount of the sample was calculated to inhibit 50% of the enzyme by extrapolating in the previously obtained straight line. […]

[3] = Example 10, peptides 10 mg/kg bw, captopril 50 mg/kg bw, intragastric

Chain of Angiotensin Converting Enzyme (ACE) (P12821 30-1306, species assumed): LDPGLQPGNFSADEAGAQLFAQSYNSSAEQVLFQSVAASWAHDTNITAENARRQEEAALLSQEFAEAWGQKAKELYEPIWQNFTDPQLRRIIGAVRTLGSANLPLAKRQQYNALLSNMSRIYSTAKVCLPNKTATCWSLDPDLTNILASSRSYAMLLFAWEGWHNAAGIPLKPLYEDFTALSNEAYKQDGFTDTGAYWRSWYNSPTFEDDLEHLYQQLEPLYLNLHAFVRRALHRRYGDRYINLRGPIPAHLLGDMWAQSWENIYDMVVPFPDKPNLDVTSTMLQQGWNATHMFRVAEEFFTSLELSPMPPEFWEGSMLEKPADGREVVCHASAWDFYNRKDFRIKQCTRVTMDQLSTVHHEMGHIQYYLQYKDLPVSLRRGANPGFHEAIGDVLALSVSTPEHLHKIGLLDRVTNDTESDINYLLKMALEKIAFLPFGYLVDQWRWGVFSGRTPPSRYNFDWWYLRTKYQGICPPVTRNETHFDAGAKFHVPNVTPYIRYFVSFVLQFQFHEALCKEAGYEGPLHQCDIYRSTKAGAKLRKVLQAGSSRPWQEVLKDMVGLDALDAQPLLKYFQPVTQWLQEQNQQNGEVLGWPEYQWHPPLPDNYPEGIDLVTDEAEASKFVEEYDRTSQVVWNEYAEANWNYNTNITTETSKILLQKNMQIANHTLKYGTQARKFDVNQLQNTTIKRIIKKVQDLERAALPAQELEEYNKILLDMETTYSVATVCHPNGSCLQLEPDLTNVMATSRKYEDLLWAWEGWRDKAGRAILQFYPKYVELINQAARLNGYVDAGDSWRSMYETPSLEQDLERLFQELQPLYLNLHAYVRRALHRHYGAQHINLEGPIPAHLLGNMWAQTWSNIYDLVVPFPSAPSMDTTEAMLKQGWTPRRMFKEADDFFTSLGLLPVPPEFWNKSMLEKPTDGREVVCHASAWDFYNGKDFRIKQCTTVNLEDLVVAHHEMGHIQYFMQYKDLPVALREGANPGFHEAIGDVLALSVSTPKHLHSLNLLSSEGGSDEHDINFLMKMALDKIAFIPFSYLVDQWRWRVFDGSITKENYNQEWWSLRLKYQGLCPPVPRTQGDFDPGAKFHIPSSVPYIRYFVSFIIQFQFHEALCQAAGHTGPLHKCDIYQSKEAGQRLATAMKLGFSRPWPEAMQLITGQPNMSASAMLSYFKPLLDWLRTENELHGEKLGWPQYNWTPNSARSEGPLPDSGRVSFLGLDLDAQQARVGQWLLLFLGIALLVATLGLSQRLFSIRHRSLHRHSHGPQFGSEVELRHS

Row | ACEI activity (%) [2] [%] | Molecule | ΔSBP (mmHg) 2 h [1, 3] [mmHg] | ΔSBP (mmHg) 4 h ([1]; Example 10) [mmHg] | ΔSBP (mmHg) 6 h ([1]; Example 10) [mmHg] | ΔSBP (mmHg) 8 h ([1]; Example 10) [mmHg] | ΔSBP (mmHg) 24 h ([1]; Example 10) [mmHg] | ΔSBP (mmHg) 48 h ([1]; Example 10) [mmHg] | also measured
1 | – | C[C@H](CS)C(=O)N1CCC[C@H]1C(=O)O [Captopril, captopril, reference compound] | −19 ± 6 | −34 ± 4 | −44 ± 4 | −45 ± 3 | −22 ± 6 | −7 ± 4 | maximum decrease in SBP ([1]; Example 3, FIG. 1A, at 6 h post-administration, wine lees 5 mL/kg bw, captopril 50 mg/kg bw): −43.2±3.9 mmHg; maximum decrease in DBP ([1]; Example 3, FIG. 1B, at 6 h post-administration, wine lees 5 mL/kg bw, captopril 50 mg/kg bw): −47.2±1.5 mmHg; ΔSBP (mmHg) 2 h ([1]; Example 4, captopril 50 mg/kg bw, UVC wine lees 5 mL/kg bw, lyophilized lees 125 mg/kg bw): −24 ± 3 mmHg; ΔSBP (mmHg) 4 h ([1]; Example 4): −26 ± 2 mmHg; ΔSBP (mmHg) 6 h ([1]; Example 4): −43 ± 4 mmHg; ΔSBP (mmHg) 8 h ([1]; Example 4): −16 ± 3 mmHg; ΔSBP (mmHg) 24 h ([1]; Example 4): −1 ± 2 mmHg; ΔSBP (mmHg) 48 h ([1]; Example 4): −2 ± 3 mmHg; maximum decrease in SBP at 6 h ([1]; Example 8, FIG. 4, captopril 50 mg/kg bw): −43 mm Hg; decrease in SBP at 48 h after administration ([1]; Example 8, hydrolysate 5 mL/kg bw, captopril 50 mg/kg bw): no longer exerted any significant effect; ΔSBP (mmHg) 2 h ([1]; Example 10, peptides 10 mg/kg bw, captopril 50 mg/kg bw, intragastric, listed as captopril): −19 mmHg; ΔSBP (mmHg) 24 h ([1]; Example 10, listed as captopril): −22 mmHg; decrease in SBP ([1]; FIG. 2A, 6 h after administration, captopril 50 mg/kg bw): −43 mmHg
2 | 27.0 ± 5.6 | FKTTDQQTRTTVA (Synthesized peptide P1) [peptide identified in hydrolysate 3, chemically synthesized] | −12 ± 2 | −15 ± 4 | −23 ± 5 | −24 ± 3 | −13 ± 3 | −1 ± 3 | maximum values of SBP reduction ([1]; Example 10, 10 mg/kg bw): −23 mmHg
3 | – | LDSPSEGRAPG (Synthesized peptide P5) [peptide identified in hydrolysate 3, chemically synthesized] | −10 ± 4 | −12 ± 5 | −18 ± 3 | −18 ± 3 | −3 ± 4 | −1 ± 4 | –
4 | 2.4 ± 0.9 | LDSPSEGRAPGAD (Synthesized peptide P6) [peptide identified in hydrolysate 3, chemically synthesized] | −11 ± 2 | −16 ± 4 | −24 ± 3 | −22 ± 4 | −2 ± 4 | −5 ± 4 | maximum values of SBP reduction ([1]; Example 10, 10 mg/kg bw): −24 mmHg
5 | 48.5 ± 9.1 | NPKLVTIV (Synthesized peptide P2) [peptide identified in hydrolysate 3, chemically synthesized] | −9 ± 6 | −13 ± 4 | −19 ± 5 | −14 ± 3 | −5 ± 4 | −5 ± 3 | –
6 | – | PAGELHP (Synthesized peptide P4) [peptide identified in hydrolysate 3, chemically synthesized] | −7 ± 3 | −5 ± 4 | −6 ± 5 | −5 ± 4 | −3 ± 7 | −2 ± 3 | antihypertensive effect in SHR ([1]; Example 10, 10 mg/kg bw): did not show an antihypertensive effect
7 | – | TVTNPARIA (Synthesized peptide P3) [peptide identified in hydrolysate 3, chemically synthesized] | −2 ± 4 | −14 ± 4 | −16 ± 2 | −14 ± 4 | −5 ± 3 | −2 ± 3 | –
